# Test results from patent publication US10563216B2, “Compositions and methods of delivering molecules to plants” (Bloomsburg University of Pennsylvania, priority 2016, dated 2020).
# Test system: AvsYS1 avenic acid/Fe+3 transporter
# Assay: Yeast growth assay in liquid medium; only iron available is Fe+3 complexed with the phytosiderophore or analog; DEY1453:pJKD1 (pYES2/AvsYS1) vs DEY1453:pYES2
# Assay type: cell-based, Avena sativa
# Conditions: for growth of yeast transformants containing pJKD1 (AvsYS1 transporter): S. cerevisiae DEY1453:pJKD1, ferric iron supplied only as complex with the substance, YNB pH 7.5, BPDS
# Description: AvsYS1 (Genbank FJ477297.1) was isolated using 5′RACE from the roots of iron starved oats (Avena sativa). Primers were designed by comparing one functionally confirmed phytosiderophore/Fe′ transporter (HvYS1) and other iron transport proteins. After obtaining a full-length clone, we subcloned the gene (AvsYS1) into a yeast galactose inducible expression vector (pYES2). The resultant plasmid was designated pJKD1. We obtained a yeast strain that lacks the ability to take up ferric iron, and transformed it with pYES2 and pJKD1. The transformants were grown under identical conditions in which the only iron available was in the Fe^+3/avenic acid complex.
# We engineered the AvsYS1 gene into a galactose inducible expression systems vector (pYES2). Our first major result was the functional confirmation of the AvsYS1 gene. We transformed pYES2 and pJKD1 (pYES2/AvsYS1) into a strain of S. cerevisiae (DEY1453) that lacks the ability to take up Fe^+3. In the process, we developed a new assay based on growth in liquid medium. The advantage of this assay over more traditional assays used in yeast-based PS/Fe^+3 assays is that it is quantifiable. Other assays (e.g., Murata, 2006) grow yeast on a solid plate, and qualitative growth of colonies is used. With our assay, we can generate numerical data based on the density as measured by the absorbance at 600 nm. […] Further detail is provided below.
# Protocols included: 53Y and 53K in DOB+FeSO4, 53Y and 53K in YNB supplemented with Avenic acid; 53Y and 53K supplemented with BPA-1-068B; 53Y and 53K in YNB w/no supplements; uninoculated YNB; uninoculated DOB.
# Protocols included: 53Y and 53K, supplemented with Avenic acid, 53Y and 53K supplemented with BPA-1-068B, 53Y and 53K in YNB w/no supplements.
# Strains grown in YNB/Gal, pH 7.5, Amp50, Avenic acid: Fe^+3, 5:1
# Protocols included: 53Y(pYES2) and 53K(pJKD1=pYES2+AvsYS1), supplemented with Avenic acid (red arrows); 53Y and 53K supplemented with BPA-1-068B (blue arrows); 53Y and 53K in YNB w/no supplements.
SMILES,"growth rate of DEY1453:pJKD1 (Fe+3 complexed with the analog, robustness compared to DEY1453:pYES2 controls)",growth of yeast transformants containing pJKD1 (AvsYS1 transporter),"growth of yeast transformants with pYES2 (no transporter) (S. cerevisiae DEY1453:pYES2, only iron available is the Fe+3 complex with the substance)"
O=C(CC(NCCC(NCC[C@H](O)C(=O)O)C(=O)O)C(=O)O)OCc1ccccc1O (some centres unmarked) [BPA-1-068B],"slower, but undeniably robust",able to grow,
O=C(O)C(CO)NCCC(NCC[C@H](O)C(=O)O)C(=O)O (some centres unmarked) [MGS-2-128BF],,supported growth as well as avenic acid,
O=C(O)C(CCO)NCCC(NCC[C@H](O)C(=O)O)C(=O)O (some centres unmarked) [avenic acid],,able to grow vigorously,could not
